The source of these data is EPA's ToxValDB 9.5 (doi:10.2903/j.efsa.2009.204r).

In brackets after ≈: the same amount, converted by molar mass. Where only a bound is given, the exact number is not on record here.

One may read the NOAEL as the highest dose or exposure tested at which no adverse effect was seen.

The subject of one data set is Typhlodromus pyri. Put plainly: LR50; higher = less toxic. To be noted: acute; duration: 7 days; mortality.
In the next data set the test system is Oncorhynchus mykiss. The settings on record: chronic/long-term; duration: 28 days; growth.
A further data set deals with Daphnia magna. To be noted: chronic/long-term; duration: 21 days; reproduction.
The test system of another data set is Folsomia candida. To be noted: chronic/long-term; duration: 28 days.
The next data set relates to Mus musculus. The settings on record: oral.
A further data set has as its system Apis mellifera. The settings on record: acute; duration: 48 hours; oral; unspecified; mortality.
The subject of a further data set is Cyprinus carpio. To be noted: acute; duration: 96 hours; mortality.
A further data set deals with Anas platyrhynchos. The settings on record: short-term; oral; feed; mortality.

The compound `CC(C)=NOCCOC(=O)[C@@H](C)Oc1ccc(Oc2cnc3cc(Cl)ccc3n2)cc1` [Propaquizafop] gave an LR50 in the data set with Typhlodromus pyri of over 1.4 g/ha. Moreover, the NOEC in the data set on Oncorhynchus mykiss was 0.019 mg/L; in the data set on Daphnia magna, 0.44 mg/L; with Folsomia candida, 5.4 mg/kg; in the data set on Tagia sp. (chronic/long-term, duration: 56 days) it was 3.9 mg/kg; with Colinus virginianus (reproduction developmental), at least 20.2 mg/kg-day. Further, the NOAEL in the data set with Rattus norvegicus (reproduction developmental, reproduction) turned out to be 15 mg/kg-day; in the data set on Rattus norvegicus (subchronic, duration: 90 days, oral), 6.25 mg/kg-day; in the data set on Mus musculus (chronic, duration: 18 months, clinical chemistry), 1.5 mg/kg-day. For the same compound, the LC50 in the data set on Tagia sp. (acute, mortality) is over 1000 mg/kg; in the data set with Cyprinus carpio, 0.19 µg/mL (≈ 0.428 µM); in the data set with Anas platyrhynchos it was over 827 mg/kg-day. The LD50 in the data set with Mus musculus (acute, mortality) is 3010 mg/kg; with Apis mellifera, over 20 µg/piece; with Colinus virginianus (acute, oral, mortality), over 2000 mg/kg.
